Measurements: patent EP4596574A1, “GLP-1/GCG/GIP TRIPLE-RECEPTOR AGONIST AND USE THEREOF” (Sunshine Lake Pharma Co., Ltd., priority 2022, dated 2024)

Experiments:
Type in all cases: cell-based
GLP-1R = biological target: T1, GLP-1R (Homo sapiens, UniProt P43220); test: In vitro cell activity, cAMP production in HEK293 cells expressing GLP-1R; conditions: HEK293-GLP-1R cells, cAMP; read-out: GLP-1R (EC50)
T1 construct: expressed in transfected cells; host or cells: HEK293 (HEK293-GLP-1R)
Method in brief: (§1)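 Assay format: cells at 4×10^5 cells/mL, cAMP sensed by d2/cryptate FRET pair, dual-wavelength read at 665 and 620 nm. Potency expressed as EC50 from nonlinear fitting.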

GCGR = biological target: T2, GCGR (Homo sapiens, UniProt P47871); test: In vitro cell activity, cAMP production in HEK293 cells expressing GCGR; conditions: HEK293-GCGR cells, cAMP; read-out: GCGR (EC50)
T2 construct: expressed in transfected cells; host or cells: HEK293 (HEK293-GCGR)
T2 sequence (P47871 26-477, species assumed): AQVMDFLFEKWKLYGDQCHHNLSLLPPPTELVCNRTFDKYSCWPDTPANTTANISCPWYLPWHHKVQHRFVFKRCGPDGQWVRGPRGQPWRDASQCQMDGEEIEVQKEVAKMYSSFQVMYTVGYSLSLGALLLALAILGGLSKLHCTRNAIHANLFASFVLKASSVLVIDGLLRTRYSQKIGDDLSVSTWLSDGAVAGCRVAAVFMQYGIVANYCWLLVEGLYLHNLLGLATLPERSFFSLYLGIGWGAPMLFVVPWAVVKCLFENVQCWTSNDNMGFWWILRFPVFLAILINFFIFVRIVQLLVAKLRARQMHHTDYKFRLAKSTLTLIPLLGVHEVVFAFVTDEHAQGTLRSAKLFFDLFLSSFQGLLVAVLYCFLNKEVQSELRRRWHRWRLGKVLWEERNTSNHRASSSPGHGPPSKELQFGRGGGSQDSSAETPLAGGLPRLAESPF
Method in brief: as §1

GIPR = biological target: T3, GIPR (Homo sapiens, UniProt P48546); test: In vitro cell activity, cAMP production in HEK293 cells expressing GIPR; conditions: HEK293-GIPR cells, cAMP; read-out: GIPR (EC50)
T3 construct: expressed in transfected cells; host or cells: HEK293 (HEK293-GIPR)
T3 sequence (P48546 22-466): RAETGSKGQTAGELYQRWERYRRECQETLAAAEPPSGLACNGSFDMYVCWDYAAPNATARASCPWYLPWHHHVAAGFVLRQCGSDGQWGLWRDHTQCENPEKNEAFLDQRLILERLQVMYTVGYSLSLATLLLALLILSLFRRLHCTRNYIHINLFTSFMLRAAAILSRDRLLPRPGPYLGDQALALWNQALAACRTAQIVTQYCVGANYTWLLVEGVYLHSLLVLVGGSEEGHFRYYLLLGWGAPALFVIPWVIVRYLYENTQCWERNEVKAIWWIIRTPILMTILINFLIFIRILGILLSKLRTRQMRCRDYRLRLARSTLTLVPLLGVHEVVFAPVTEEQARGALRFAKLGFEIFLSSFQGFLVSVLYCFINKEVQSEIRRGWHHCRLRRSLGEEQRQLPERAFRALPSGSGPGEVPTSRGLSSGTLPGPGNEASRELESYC
Method in brief: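 cAMP accumulation is quantified by homogeneous TR-FRET (cAMP-d2 plus anti-cAMP cryptate) in GIPR-expressing HEK293 cells seeded from a 4×10^5 cells/mL suspension and treated with compound. The signal ratio is plotted against concentration and fitted to a four-parameter curve to give EC50.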

T1 sequence (P43220 24-463, species assumed): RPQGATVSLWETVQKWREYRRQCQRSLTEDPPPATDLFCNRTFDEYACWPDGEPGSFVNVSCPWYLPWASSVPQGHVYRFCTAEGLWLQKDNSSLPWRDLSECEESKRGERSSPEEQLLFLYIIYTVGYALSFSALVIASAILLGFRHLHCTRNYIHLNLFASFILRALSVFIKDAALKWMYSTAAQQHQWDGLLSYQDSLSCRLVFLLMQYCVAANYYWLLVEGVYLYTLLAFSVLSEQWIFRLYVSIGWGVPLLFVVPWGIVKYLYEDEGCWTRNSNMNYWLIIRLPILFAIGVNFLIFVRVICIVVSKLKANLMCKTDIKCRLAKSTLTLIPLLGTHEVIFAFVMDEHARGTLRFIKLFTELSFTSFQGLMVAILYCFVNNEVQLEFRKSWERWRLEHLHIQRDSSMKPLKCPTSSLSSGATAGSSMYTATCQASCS

| SMILES | EC50 (GLP-1R) [nM] | EC50 (GCGR) [nM] | EC50 (GIPR) [nM] |
| --- | --- | --- | --- |
| CC[C@H](C)[C@H](NC(=O)[C@H](Cc1ccccc1)NC(=O)[C@H](C)NC(=O)[C@H](CCC(N)=O)NC(=O)[C@H](CCC(N)=O)NC(=O)[C@H](CCCNC(=N)N)NC(=O)[C@H](CCCCNC(=O)COCCOCCNC(=O)CC[C@H](NC(=O)CCCCCCCCCCCCCCCCCCC(=O)O)C(=O)O)NC(=O)[C@H](CCCNC(=N)N)NC(=O)[C@H](CC(=O)O)NC(=O)[C@H](CC(C)C)NC(=O)[C@H](CC(C)C)NC(=O)[C@@H](NC(=O)[C@H](CO)NC(=O)[C@H](Cc1ccc(O)cc1)NC(=O)[C@H](CC(=O)O)NC(=O)[C@H](CO)NC(=O)[C@@H](NC(=O)[C@](C)(Cc1ccccc1F)NC(=O)[C@@H](NC(=O)CNC(=O)[C@H](CCC(N)=O)NC(=O)C(C)(C)NC(=O)[C@@H](N)Cc1ccc(O)cc1)[C@@H](C)O)[C@@H](C)O)[C@@H](C)CC)C(=O)N[C@@H](CCC(=O)O)C(=O)N[C@@H](Cc1ccc(O)cc1)C(=O)N[C@@H](CC(C)C)C(=O)N[C@@H](CC(C)C)C(=O)N[C@@H](C)C(=O)NCC(=O)NCC(=O)N1CCC[C@H]1C(=O)N[C@@H](CO)C(=O)N[C@@H](CO)C(=O)NCC(=O)N[C@@H](C)C(=O)N1CCC[C@H]1C(=O)N1CCC[C@H]1C(=O)N1CCC[C@H]1C(=O)N[C@@H](CO)C(=O)O [HEC-PT128] | 0.38 | 0.128 | 0.0608 |
| CC[C@H](C)[C@H](NC(=O)[C@H](CO)NC(=O)[C@H](Cc1ccc(O)cc1)NC(=O)[C@H](CC(=O)O)NC(=O)[C@H](CO)NC(=O)[C@@H](NC(=O)[C@](C)(Cc1ccccc1F)NC(=O)[C@@H](NC(=O)CNC(=O)[C@H](CCC(N)=O)NC(=O)C(C)(C)NC(=O)[C@@H](N)Cc1ccc(O)cc1)[C@@H](C)O)[C@@H](C)O)C(=O)N[C@@H](CC(C)C)C(=O)N[C@@H](CC(C)C)C(=O)N[C@@H](CC(=O)O)C(=O)N[C@@H](CCC(=O)O)C(=O)N[C@@H](CCCCNC(=O)COCCOCCNC(=O)CC[C@H](NC(=O)CCCCCCCCCCCCCCCCC(=O)O)C(=O)O)C(=O)N[C@@H](CCCCN)C(=O)N[C@@H](CCC(N)=O)C(=O)NC(C)(C)C(=O)N[C@@H](CCC(=O)O)C(=O)N[C@@H](Cc1ccccc1)C(=O)N[C@H](C(=O)N[C@@H](CCC(=O)O)C(=O)N[C@@H](Cc1c[nH]c2ccccc12)C(=O)N[C@@H](CC(C)C)C(=O)N[C@@H](CC(C)C)C(=O)N[C@@H](C)C(=O)NCC(=O)NCC(=O)N1CCC[C@H]1C(=O)N[C@@H](CO)C(=O)N[C@@H](CO)C(=O)NCC(=O)N[C@@H](C)C(=O)N1CCC[C@H]1C(=O)N1CCC[C@H]1C(=O)N1CCC[C@H]1C(=O)N[C@@H](CO)C(N)=O)[C@@H](C)CC [HEC-PT129] | 0.141 | 0.525 | 0.0439 |
| CC[C@H](C)[C@H](NC(=O)[C@H](Cc1ccccc1)NC(=O)[C@H](C)NC(=O)[C@H](CCCCN)NC(=O)[C@H](CCC(N)=O)NC(=O)[C@H](CCCCN)NC(=O)[C@H](CCCCNC(=O)COCCOCCNC(=O)CC[C@H](NC(=O)CCCCCCCCCCCCCCCCC(=O)O)C(=O)O)NC(=O)[C@H](CCC(=O)O)NC(=O)[C@H](CC(=O)O)NC(=O)[C@H](CC(C)C)NC(=O)[C@H](CC(C)C)NC(=O)[C@@H](NC(=O)[C@H](CO)NC(=O)[C@H](Cc1ccc(O)cc1)NC(=O)[C@H](CC(=O)O)NC(=O)[C@H](CO)NC(=O)[C@@H](NC(=O)[C@](C)(Cc1ccccc1F)NC(=O)[C@@H](NC(=O)CNC(=O)[C@H](CCC(N)=O)NC(=O)C(C)(C)NC(=O)[C@@H](N)Cc1ccc(O)cc1)[C@@H](C)O)[C@@H](C)O)[C@@H](C)CC)C(=O)N[C@@H](CCC(=O)O)C(=O)N[C@@H](Cc1ccc(O)cc1)C(=O)N[C@@H](CC(C)C)C(=O)N[C@@H](CC(C)C)C(=O)N[C@@H](C)C(=O)NCC(=O)NCC(=O)N1CCC[C@H]1C(=O)N[C@@H](CO)C(=O)N[C@@H](CO)C(=O)NCC(=O)N[C@@H](C)C(=O)N1CCC[C@H]1C(=O)N1CCC[C@H]1C(=O)N1CCC[C@H]1C(=O)N[C@@H](CO)C(N)=O [HEC-PT130] | 0.17 | 4.86 | 0.541 |
| CC[C@H](C)[C@H](NC(=O)[C@H](Cc1ccccc1)NC(=O)[C@H](C)NC(=O)[C@H](CCCCN)NC(=O)[C@H](CCC(N)=O)NC(=O)[C@H](CCCCN)NC(=O)[C@H](CCCCNC(=O)COCCOCCNC(=O)CC[C@H](NC(=O)CCCCCCCCCCCCCCCCCCC(=O)O)C(=O)O)NC(=O)[C@H](CCC(=O)O)NC(=O)[C@H](CC(=O)O)NC(=O)[C@H](CC(C)C)NC(=O)[C@H](CC(C)C)NC(=O)[C@@H](NC(=O)[C@H](CO)NC(=O)[C@H](Cc1ccc(O)cc1)NC(=O)[C@H](CC(=O)O)NC(=O)[C@H](CO)NC(=O)[C@@H](NC(=O)[C@](C)(Cc1ccccc1F)NC(=O)[C@@H](NC(=O)CNC(=O)[C@H](CCC(N)=O)NC(=O)C(C)(C)NC(=O)[C@@H](N)Cc1ccc(O)cc1)[C@@H](C)O)[C@@H](C)O)[C@@H](C)CC)C(=O)N[C@@H](CCC(=O)O)C(=O)N[C@@H](Cc1ccc(O)cc1)C(=O)N[C@@H](CC(C)C)C(=O)N[C@@H](CC(C)C)C(=O)N[C@@H](C)C(=O)NCC(=O)NCC(=O)N1CCC[C@H]1C(=O)N[C@@H](CO)C(=O)N[C@@H](CO)C(=O)NCC(=O)N[C@@H](C)C(=O)N1CCC[C@H]1C(=O)N1CCC[C@H]1C(=O)N1CCC[C@H]1C(=O)N[C@@H](CO)C(N)=O [HEC-PT131] | 0.249 | 8.07 | 1.13 |
| CC[C@H](C)[C@H](NC(=O)[C@H](Cc1ccccc1)NC(=O)[C@H](C)NC(=O)[C@H](CCCNC(=N)N)NC(=O)[C@H](CCC(N)=O)NC(=O)[C@H](CCCNC(=N)N)NC(=O)[C@H](CCCCNC(=O)COCCOCCNC(=O)CC[C@H](NC(=O)CCCCCCCCCCCCCCCCC(=O)O)C(=O)O)NC(=O)[C@H](CCC(=O)O)NC(=O)[C@H](CC(=O)O)NC(=O)[C@H](CC(C)C)NC(=O)[C@H](CC(C)C)NC(=O)[C@@H](NC(=O)[C@H](CO)NC(=O)[C@H](Cc1ccc(O)cc1)NC(=O)[C@H](CC(=O)O)NC(=O)[C@H](CO)NC(=O)[C@@H](NC(=O)[C@](C)(Cc1ccccc1F)NC(=O)[C@@H](NC(=O)CNC(=O)[C@H](CCC(N)=O)NC(=O)C(C)(C)NC(=O)[C@@H](N)Cc1ccc(O)cc1)[C@@H](C)O)[C@@H](C)O)[C@@H](C)CC)C(=O)N[C@@H](CCC(=O)O)C(=O)N[C@@H](Cc1ccc(O)cc1)C(=O)N[C@@H](CC(C)C)C(=O)N[C@@H](CC(C)C)C(=O)N[C@@H](C)C(=O)NCC(=O)NCC(=O)N1CCC[C@H]1C(=O)N[C@@H](CO)C(=O)N[C@@H](CO)C(=O)NCC(=O)N[C@@H](C)C(=O)N1CCC[C@H]1C(=O)N1CCC[C@H]1C(=O)N1CCC[C@H]1C(=O)N[C@@H](CO)C(=O)O [HEC-PT134] | 0.146 | 0.862 | 0.207 |
| CC[C@H](C)[C@H](NC(=O)[C@H](CO)NC(=O)[C@H](Cc1ccc(O)cc1)NC(=O)[C@H](CC(=O)O)NC(=O)[C@H](CO)NC(=O)[C@@H](NC(=O)[C@](C)(Cc1ccccc1F)NC(=O)[C@@H](NC(=O)CNC(=O)[C@H](CCC(N)=O)NC(=O)C(C)(C)NC(=O)[C@@H](N)Cc1ccc(O)cc1)[C@@H](C)O)[C@@H](C)O)C(=O)N[C@@H](CC(C)C)C(=O)N[C@@H](CC(C)C)C(=O)N[C@@H](CC(=O)O)C(=O)N[C@@H](CCC(=O)O)C(=O)N[C@@H](CCCCNC(=O)COCCOCCNC(=O)CC[C@H](NC(=O)CCCCCCCCCCCCCCCCC(=O)O)C(=O)O)C(=O)N[C@@H](CCCNC(=N)N)C(=O)N[C@@H](CCC(N)=O)C(=O)N[C@@H](CCCNC(=N)N)C(=O)N[C@@H](C)C(=O)N[C@@H](Cc1ccccc1)C(=O)N[C@H](C(=O)N[C@@H](CCC(=O)O)C(=O)N[C@@H](Cc1ccc(O)cc1)C(=O)N[C@@H](CC(C)C)C(=O)N[C@@H](CC(C)C)C(=O)N[C@@H](C)C(=O)NCC(=O)NCC(=O)N1CCC[C@H]1C(=O)N[C@@H](CO)C(=O)N[C@@H](CO)C(=O)NCC(=O)N[C@@H](C)C(=O)N1CCC[C@H]1C(=O)N1CCC[C@H]1C(=O)N1CCC[C@H]1C(=O)N[C@@H](CO)C(=O)O)C(C)C [HEC-PT135] | 0.19 | 0.902 | 0.283 |
